The record followed here is ChEMBL document CHEMBL1138106, “The discovery of a potent and selective lethal factor inhibitor for adjunct therapy of anthrax infection” (Bioorg Med Chem Lett, 2006).

Some results are limits rather than exact numbers.

For assay [1], the target named is T1, Lethal factor (Bacillus anthracis, UniProt P15917).
T1 sequence (P15917 whole entry): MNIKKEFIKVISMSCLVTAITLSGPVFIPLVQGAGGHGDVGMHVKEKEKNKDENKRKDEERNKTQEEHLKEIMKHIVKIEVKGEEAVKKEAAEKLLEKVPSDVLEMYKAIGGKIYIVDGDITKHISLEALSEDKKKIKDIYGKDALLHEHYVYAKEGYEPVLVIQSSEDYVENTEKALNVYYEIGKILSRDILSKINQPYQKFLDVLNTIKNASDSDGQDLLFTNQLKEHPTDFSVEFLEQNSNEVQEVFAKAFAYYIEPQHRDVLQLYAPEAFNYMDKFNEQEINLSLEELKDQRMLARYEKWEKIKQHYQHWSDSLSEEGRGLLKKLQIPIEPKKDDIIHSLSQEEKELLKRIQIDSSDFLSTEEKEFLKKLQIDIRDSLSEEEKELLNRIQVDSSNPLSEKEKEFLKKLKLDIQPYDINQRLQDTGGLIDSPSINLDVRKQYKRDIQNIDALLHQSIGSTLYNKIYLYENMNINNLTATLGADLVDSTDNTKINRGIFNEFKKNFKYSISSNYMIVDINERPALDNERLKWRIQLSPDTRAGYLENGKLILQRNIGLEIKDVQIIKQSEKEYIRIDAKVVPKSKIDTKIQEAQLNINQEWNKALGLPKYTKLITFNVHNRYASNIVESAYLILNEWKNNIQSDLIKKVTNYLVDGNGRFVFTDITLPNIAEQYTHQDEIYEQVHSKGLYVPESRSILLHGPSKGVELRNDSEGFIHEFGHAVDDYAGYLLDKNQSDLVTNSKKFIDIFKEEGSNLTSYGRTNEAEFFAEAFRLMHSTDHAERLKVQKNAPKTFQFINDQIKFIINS

Assay [2] addresses T1, Lethal factor. The source holds these as a separate data set.
In assay [3] the target is T1, Lethal factor. The experiment in a line: Inhibition of LF.

On to `CC[C@@H](C)[C@@H](NS(=O)(=O)c1ccc(F)c(C)c1)C(=O)NO`, for which the IC50 – broadly, the concentration at which inhibition is half-maximal – at Lethal factor [1] was 67 nM; against Lethal factor [2] it was 130 nM.

Turning to `CC(C)[C@@H](NS(=O)(=O)Cc1cccc(Cl)c1)C(=O)NO`, the IC50 against Lethal factor [1] was 16600 nM; against Lethal factor [2] it was above 20000 nM.

Regarding `CCCC[C@@H](NS(=O)(=O)c1ccc(F)c(C)c1)C(=O)NO`, the IC50 against Lethal factor [1] was 70 nM; on Lethal factor [2] it was 410 nM.

`COc1ccc(S(=O)(=O)N(CCn2ccnc2)[C@@H](C(=O)NO)C(C)C)cc1`: at Lethal factor [1], the IC50 came to 19100 nM.

As for `Cc1ccc(S(=O)(=O)N[C@@H](C(=O)NO)C(C)C)cc1F`, the IC50 on Lethal factor [1] is 5180 nM; against Lethal factor [2] it was above 20000 nM.

As to `CC(C)[C@@H](NS(=O)(=O)c1ccccc1F)C(=O)NO`, the IC50 against Lethal factor [1] is 6600 nM; on Lethal factor [2] it was above 20000 nM.

Regarding `Cc1cc(S(=O)(=O)NC(CCc2c[nH]cn2)C(=O)NO)ccc1F` (racemic), the IC50 at Lethal factor [1] amounted to 75 nM; on Lethal factor [2], 2800 nM.

For the compound `Cc1cc(S(=O)(=O)N[C@H](CCNC(=O)C(C)(C)N)C(=O)NO)ccc1F`, the half-inhibitory concentration (IC50) at Lethal factor [1] amounted to 57 nM; against Lethal factor [2] it was 8700 nM.

Consider `Cc1ccc(S(=O)(=O)N[C@@H](C(=O)NO)C(C)C)cc1`, for which the results for the IC50 on Lethal factor [1] and at Lethal factor [2] were 3000 nM and 15000 nM, respectively.

`Cc1cc(S(=O)(=O)N[C@@H](C(=O)NO)C(C)(C)C)ccc1F`: the IC50 amounted to 300 nM against Lethal factor [1] and 2300 nM against Lethal factor [2].

`Cc1cc(S(=O)(=O)N[C@@H](C(=O)NO)C2CCCCC2)ccc1F`: the results for the IC50 at Lethal factor [1] and against Lethal factor [2] were 42 nM and 190 nM, respectively.

As to `CC(C)[C@@H](NS(=O)(=O)c1ccc(Cl)s1)C(=O)NO`, the IC50 against Lethal factor [1] worked out at 1310 nM; on Lethal factor [2], 6450 nM.

For `COc1ccc(S(=O)(=O)N(Cc2ccncc2)[C@@H](C(=O)NO)C(C)C)cc1`, the IC50 was determined as 3100 nM at Lethal factor [1] and 9500 nM against Lethal factor [2].

Turning to `COc1ccc(S(=O)(=O)N[C@@H](C(=O)NO)C(C)C)cc1`, the IC50 on Lethal factor [1] amounted to 900 nM; on Lethal factor [2] it was 7300 nM.

For `CC(C)[C@@H](NS(=O)(=O)c1ccccc1)C(=O)NO`, the IC50 against Lethal factor [1] stood at 1100 nM; at Lethal factor [2], 7800 nM.

On to `Cc1cc(S(=O)(=O)N[C@@H](C(=O)NO)C(C)C)ccc1O`, for which the IC50 at Lethal factor [1] was 1640 nM; at Lethal factor [2] it was above 20000 nM.

As to `Cc1cc(S(=O)(=O)N[C@@H](C(=O)NO)c2ccccc2)ccc1F`, the IC50 worked out at 50 nM at Lethal factor [1] and 370 nM at Lethal factor [2].

On to `CC(C)[C@@H](NS(=O)(=O)c1cccc(F)c1)C(=O)NO`, for which the half-maximal inhibitory concentration (IC50) against Lethal factor [1] came out at 2800 nM; against Lethal factor [2], 12400 nM.

Regarding `Cc1cc(S(=O)(=O)N[C@H](C)C(=O)NO)ccc1F`, the values for the IC50 at Lethal factor [1] and against Lethal factor [2] were 130 nM and 2100 nM, respectively.

For `Cc1cc(S(=O)(=O)N[C@@H](C(=O)NO)C2CCC2)ccc1F`, the 50% inhibitory concentration (IC50) was 130 nM on Lethal factor [1] and 670 nM against Lethal factor [2].

Consider `Cc1cc(S(=O)(=O)N[C@H](CCNC(=O)CN)C(=O)NO)ccc1F`, for which the IC50 on Lethal factor [1] was found to be 37 nM; against Lethal factor [2], 7400 nM.

As for `Cc1cc(S(=O)(=O)N[C@@H](C(=O)NO)C(C)C)ccc1OCc1ccccc1`, the IC50 against Lethal factor [1] was above 40000 nM; at Lethal factor [2], above 20000 nM.

On to `CC(C)[C@@H](NS(=O)(=O)c1ccc(-c2cnns2)s1)C(=O)NO`, for which the results for the IC50 on Lethal factor [1] and against Lethal factor [2] were 810 nM and 10200 nM, respectively.

In the case of `Cc1cc(S(=O)(=O)N[C@H](CCNC(=O)[C@H](C)N)C(=O)NO)ccc1F`, the IC50 is 59 nM against Lethal factor [1] and 7470 nM against Lethal factor [2].

With `CC[C@@H](NS(=O)(=O)c1ccc(F)c(C)c1)C(=O)NO`, the IC50 was determined as 100 nM at Lethal factor [1] and 490 nM on Lethal factor [2].

As to `Cc1cccc(S(=O)(=O)N[C@@H](C(=O)NO)C(C)C)c1`, the IC50 was found to be 400 nM on Lethal factor [1] and 1290 nM at Lethal factor [2].

For `CCCCOc1ccc(S(=O)(=O)N[C@@H](C(=O)NO)C(C)C)cc1`, the figures for the IC50 at Lethal factor [1] and on Lethal factor [2] were above 40000 nM and above 20000 nM, respectively.

As to `CC(C)[C@@H](NS(=O)(=O)c1ccc(F)cc1)C(=O)NO`, the IC50 against Lethal factor [1] was found to be 290 nM; at Lethal factor [2] it was 3000 nM.

For `Cc1cc(S(=O)(=O)N[C@@H](C(=O)NO)[C@H]2CCOC2)ccc1F`, the IC50 on Lethal factor [1] came to 120 nM; against Lethal factor [2] it was 450 nM.

For `CC(C)[C@@H](NS(=O)(=O)CCc1ccccc1)C(=O)NO`, the IC50 on Lethal factor [1] is 11900 nM; against Lethal factor [2], above 20000 nM.

As for `CC(C)[C@@H](NS(=O)(=O)c1ccc(F)c2ccccc12)C(=O)NO`, the IC50 against Lethal factor [1] was 460 nM; on Lethal factor [2], 2760 nM.

For `Cc1cc(S(=O)(=O)N[C@H](CCCN=C(N)N)C(=O)NO)ccc1F`, the half-maximal inhibitory concentration (IC50) against Lethal factor [1] amounted to 40 nM; against Lethal factor [2], 1700 nM.

With `COc1ccc(S(=O)(=O)N[C@@H]2CCN(O)C2=O)cc1`, the IC50 on Lethal factor [1] and on Lethal factor [2] was above 40000 nM in each case.

For the compound `CC(C)[C@@H](NS(=O)(=O)c1ccc(F)c(CO)c1)C(=O)NO`, the results for the IC50 on Lethal factor [1] and against Lethal factor [2] were 600 nM and 3740 nM, respectively.

Take `COc1ccc(S(=O)(=O)N(Cc2cccnc2)[C@@H](C(=O)NO)C(C)C)cc1.Cl` [CGS-27023A]: the IC50 was 1200 nM against Lethal factor [1], “Active” against Lethal factor [3] and 12000 nM against Lethal factor [2].

`CC(C)[C@@H](NS(=O)(=O)c1ccc(-c2ccccc2)cc1)C(=O)NO`: the results for the IC50 on Lethal factor [1] and at Lethal factor [2] were above 40000 nM and above 20000 nM, respectively.

For `COc1ccc(S(=O)(=O)N(C)[C@@H](C(=O)NO)C(C)C)cc1`, 17000 nM corresponded to half-maximal inhibition at Lethal factor [2] (IC50).

On to `Cc1cc(S(=O)(=O)N[C@@H](C(=O)NO)C(C)C)ccc1F`, for which, on Lethal factor [2], the IC50 is 120 nM.

On to `CC(C)[C@@H](NS(=O)(=O)c1ccc(Oc2ccccc2)cc1)C(=O)NO`, for which the IC50 was above 40000 nM against Lethal factor [1] and above 20000 nM on Lethal factor [2].

On to `CC(C)[C@@H](NS(=O)(=O)CC(F)(F)F)C(=O)NO`, for which the IC50 at Lethal factor [1] and at Lethal factor [2] was above 40000 nM in each case.

Consider `Cc1cc(S(=O)(=O)N[C@H](CC2CC2)C(=O)NO)ccc1F`, for which the results for the IC50 against Lethal factor [1] and at Lethal factor [2] were 51 nM and 130 nM, respectively.

For `CC(C)[C@@H](NS(=O)(=O)c1ccc(C(F)(F)F)cc1)C(=O)NO`, the IC50 is above 40000 nM against Lethal factor [1] and above 20000 nM on Lethal factor [2].

`Cc1cc(S(=O)(=O)N[C@H](CCOCCN)C(=O)NO)ccc1F`: the values for the IC50 against Lethal factor [1] and against Lethal factor [2] were 48 nM and 3500 nM, respectively.

Regarding `Cc1cc(S(=O)(=O)N[C@@H](C(=O)NO)C2CCCC2)ccc1F`, the values for the IC50 on Lethal factor [1] and on Lethal factor [2] were 64 nM and 170 nM, respectively.

Turning to `CC[C@H](C)[C@@H](NS(=O)(=O)c1ccc(F)c(C)c1)C(=O)NO`, the IC50 amounted to 67 nM against Lethal factor [1] and 230 nM at Lethal factor [2].

At Lethal factor [1], `COc1ccc(S(=O)(=O)N(CCc2ccsc2)[C@@H](C(=O)NO)C(C)C)cc1` registered an IC50 of 2100 nM.

On to `Cc1cc(S(=O)(=O)N[C@@H](C(=O)NO)[C@@H](C)C2CC2)ccc1F`, for which the IC50 amounted to 65 nM against Lethal factor [1] and 460 nM against Lethal factor [2].

In the case of `CC(=O)N(Cc1cccnc1)[C@@H](C(=O)NO)C(C)C`, the IC50 on Lethal factor [1] was above 40000 nM; against Lethal factor [2], above 20000 nM.

For the compound `Cc1cc(S(=O)(=O)N[C@@H](C(=O)NO)C2CC2)ccc1F`, the IC50 on Lethal factor [1] was found to be 120 nM; at Lethal factor [2], 730 nM.

In the case of `CC(C)[C@@H](NS(=O)(=O)c1ccc(F)cc1CO)C(=O)NO`, the IC50 on Lethal factor [1] was 1310 nM; against Lethal factor [2], above 20000 nM.
